Measured values reported in US20250160329A1, “AGROCHEMICAL ADJUVANTS” (Croda International Pic, priority 2022, published 2025).

Test system: Botrytis cinerea (ATCC 90479)
Assay: Botrytis cinerea hyphal growth inhibition on PDA agar (colony diameter), adjuvant with or without pyraclostrobin
Type: cell-based
Settings: for Fold Change in Growth Inhibition: 48 h, 22° C., relative to pyraclostrobin alone
Excerpt: As a measure of the adjuvant activity in relation to the activity of the fungicide alone (e.g. pyraclostrobin) to B. cinerea a value of percent inhibition (adjuvant and fungicide) divided by percent inhibition (fungicide) can be defined, with higher values desired. A value of 1 would therefore represent equal activity of the adjuvant/fungicide combination to the fungicide alone, whereas a value above 1 would represent higher activity with the adjuvant/fungicide combination than the fungicide alone. The actives of the present invention may have a value greater than 1. Preferably greater than 1.5, most preferably greater than 2.
Percent Inhibition—The percent inhibition will be understood to represent the amount the fungicide and/or adjuvant that inhibits the visible growth of the microorganism after 48 hours incubation at 22° C. relative to vehicle treated controls. This is calculated using the following formula:
[formula] • where: • ØC=diameter of the colony grown on agar supplemented with vehicle (i.e. vehicle treated control), and • ØT=diameter of the colony grown on agar supplemented with fungicide and/or adjuvant formulated in an appropriate vehicle (i.e. solvent such as water C2H5OH, CH3OH, CH3CN, DMSO).
Fold Change—The fold change is a measure of the adjuvant/fungicide combination in inhibiting a microorganism compared to the fungicide alone. This indicates how the adjuvant performs relative to the fungicide alone. This is calculated using the following formula:
INHAF/INHF • where: • INHAF=percent inhibition of fungal growth when treated with fungicide and adjuvant, and • INHF=percent inhibition of fungal growth when treated with fungicide alone.
Botrytis cinerea (ATCC 90479) was cultured on Difco Potato Dextrose Agar (PDA) for 7 days with diurnal UV cycles (12 h UV light and 12 h dark). Spores were harvested in a buffered, sterile saline solution (w/v: 0.9% NaCl with 1% Tween 80) and counted using a haemocytometer. The spore suspension was adjusted to a final concentration of 8.5×10^6 spores/mL to create a standardised inoculum.
To prepare hyphal fragments for adjuvant testing, 8.5×10^4 spores were used to inoculate 10 mL of Difco Potato Dextrose Broth in a 150×25 mm tube. The tube was incubated at 220 RPM, 22° C. for 48 hours.
To create hyphal fragments from the culture, the culture was transferred to a 50 mL plastic conical tube containing approximately 20 sterile 5 mm diameter glass beads and vortexed for 5 min. […]
Fungicides and adjuvants were dissolved in methanol and added to molten PDA (−50° C.) and then the agar was distributed in the wells of 12 well multiwell plates (1 mL/well). […] The plates were incubated at 22° C. for 48 hours and then the colony diameter was measured using a digital caliper. […]

**Q.** For `O=C1N/C(=C\c2ccccc2)C(=O)N2CCCCC12` (stereo not shown) [DKP (Ia), cyclo(-dhPhe-Pip) diketopiperazine], which “Fold Change in Growth Inhibition” value (adjuvant 32 μg/mL + pyraclostrobin (Pyra) 0.0156 μg/mL) is on record?
**A.** 3.18

**Q.** What about the “Fold Change in Growth Inhibition” value (adjuvant 32 μg/mL + pyraclostrobin (Pyra) 0.0313 μg/mL) of the same compound?
**A.** 1.36

**Q.** And the “Fold Change in Growth Inhibition” value (adjuvant 32 μg/mL + pyraclostrobin (Pyra) 0.0625 μg/mL)?
**A.** 1.76

**Q.** What about the “fungicidal activity against B. cinerea (adjuvant alone)” value (adjuvant alone at […] (so in the source), no fungicide) of the same compound?
**A.** no fungicidal activity
